Measurements: patent publication US12433670B2, “Systems and methods for treating cancer and/or augmenting organ function” (Autonomix Medical, Inc., priority 2013, dated 2025)

Tests used:
[1] = tested on: Pancreatic carcinoma cells (Mia PaCa2)
Procedure: (§1) The following, non-limiting example, is directed to treatment of cancer (e.g., pancreatic cancer), internal pain or neural mediated hyperplasia in organs (e.g., benign prostatic hyperplasia). Pancreatic carcinoma cells (Mia PaCa2) were injected into the head of the pancreas of 10 athymic nude mice (subjects). A bolus of ethanol (50-75 uL) was administered to the celiac ganglion and surrounding nerves of five of the mice (i.e., the EtOH ablation group). The remaining five subjects constitute the untreated control group.
The mice were tracked for 7 weeks post procedure. Tumor growth rates in all subjects were monitored via bioluminescent imaging with an in vivo imaging system, i.e., IVIS Spectrum (Xenogen), twice weekly during the experiment.
(§2) The metastases per group were assessed during necropsy.

[2] = 7 weeks; EtOH group vs control group
Procedure: as §1
The experiment was terminated at 7 weeks.
as §2

[3] = tested on: Mia PaCa2 human pancreatic cancer cells
Procedure: The following non-limiting example is directed at the treatment of neurogenic pathways for tumor growth and metastasis of pancreatic ductal adenocarcinoma (PDAC). A control experiment was performed with 10 athymic nude mice. The 10 mice were surgically prepared under anesthesia, and the surgical site was cleaned with 75% ethanol solution. A dorsal incision was used to access the spleen, pancreas and associated arterial supply. Mia PaCa2 human pancreatic cancer cells were seeded into the pancreas of each mouse. In 5 of the mice, the celiac ganglion and surrounding nerves were ablated with ethanol. The surgical procedures were completed and the mice were returned to Plexiglass boxes for observation.
The animals were monitored for detectable sickness related behavior and tumor growth was monitored via in vivo bioluminescent imaging techniques (IVIS® imaging system). Animals were monitored for relative changes in the following criteria: detectable sickness-related behavior, hunching and postural changes, signs of tumor growth in the animals' back (visible lumps), increases in piloerection, changes in skin tone and character, and changes in voluntary movement levels and exploratory behavior.

[4] = necropsy at 7 weeks, affected/total mice

overall size difference between subjects in the groups (FIG. 11c) [2]: no overall size difference
SMILES: CCO [EtOH, ethanol]
median tumor size relative to the control group median tumor size ([1]; 3 weeks): less than 1%
tumor growth rate compared with the control arm (FIG. 11a) ([1]; 3 weeks post procedure, median subject of each group, ethanol 50-75 uL): substantially decreased
difference in bioluminescence between the median responders ([1]; 3 weeks post procedure, treatment arm vs control arm): ~100 ×
mean tumor size relative to the control group ([1]; 3 weeks, 1-sided, alpha=0.05, n=5, p=0.11): half
Occurrence of metastases by group: Liver [1, 4]: 0/5
Occurrence of metastases by group: Local invasion [1, 4]: 2/5
Occurrence of metastases by group: Stomach [1, 4]: 0/5
Occurrence of metastases by group: Spleen ([1]; necropsy at 7 weeks, affected/total mice, nerves from pancreas to spleen not treated): 4/5
incidence of metastases versus the untreated control group ([1]; necropsy at 7 weeks, including non-responder sub-group): considerably lower
tumor mass versus subjects of the control group ([1]; subjects with ablated peri-pancreatic nerves, overall): less tumor mass
skin tone and movement versus the control mice ([3]; 2 weeks post-surgery, celiac ganglion and surrounding nerves ablated with ethanol, n=5): improved skin tone and movement
average tumor size relative to the average tumor size in the control group (IVIS luciferase ROI imaging) ([3]; 3 weeks, experimental group vs control group): 55%
